Source: patent US20080293820A1, “METHODS FOR IMPROVING PHYSICAL FUNCTION IN FIBROMYALGIA” (Cypress Bioscience, Inc., priority 2007, published 2008)
Counter-ions that a name gives are not always drawn.

System: patients who meet the 1990 ACR criteria for fibromyalgia syndrome
Assay: Example 2: multicenter, double-blind, randomized, placebo-controlled monotherapy study of milnacipran for treatment of fibromyalgia (1196 patients)
Assay type: in vivo, human
Parameters: Mean Change from Baseline in PFI SF-36 domain score / Mean Change from Baseline in ROLP SF-36 domain score / Mean Change from Baseline in PAIN SF-36 domain score / Mean Change from Baseline in GHP SF-36 domain score: scale not given here
Details: for Composite Pain: number of responders / Composite Syndrome: number of responders / PGIC Component: number of responders / Pain Component: number of responders / SF36 PCS Component: number of responders: 100 mg (399); for time-weighted average (AUC) of SF-36 PCS Scores, Difference from Placebo / time-weighted average (AUC) of SF-36 PCS Scores, LS Mean: Tx3-Tx15, ANCOVA model
Method: The primary outcome was a composite responder analysis assessing response rates of two doses (100 mg/day and 200 mg/day) of milnacipran as compared with placebo at Visit Tx15 (week 15).
This was a multicenter, randomized, double-blind, placebo-controlled three-arm study designed which enrolled 1196 patients who meet the 1990 ACR criteria for fibromyalgia syndrome (history of widespread pain and pain in 11 of 18 tender point sites on digital palpation), as well as the more detailed admission criteria outlined in the protocol.
Patients were randomized to receive placebo, 100 mg/day milnacipran or 200 mg/day milnacipran in a ratio of 1:1:1 (placebo=401 patients, 100 mg/day=399 patients, 200 mg/day=396 patients). The patients assigned to the two active treatment arms received a total of 12 weeks of stable-dose milnacipran exposure after the 3 weeks of dosage escalation steps, for a total of 15 weeks of drug exposure. All randomized medications (placebo and milnacipran) were administered twice a day (BID).
The primary efficacy assessment of this study was a composite responder status defined by three domains of interest evaluated at visit Tx15. The domains measured were
1) pain (measured by an electronic diary in the morning as a daily recall pain score); 2) patient global (measured by the PGIC, 1-7 scale); 3) physical function (measured by the SF-36 PCS).
The secondary efficacy parameters were time-weighted average (AUC) of the weekly average PED morning recall pain scores for Weeks 4 through 15, PGIC, and SF-36 PCS for Visit Tx3 to Visit Tx15.
The physical function domain for response analysis was measured by the Physical Component Summary of SF-36 (SF-36 PCS). The SF-36 is a brief, well-established, self-administered patient questionnaire for the assessment of health status, functional status, and quality of life. The SF-36 measures eight domains of health status: physical functioning, role limitations due to physical problems, bodily pain, general health perceptions, energy/vitality, social functioning, role limitations due to emotional problems, and mental health. An SF-36 PCS score and a mental component summary (MCS) score can be calculated by combining and weighting the various individual scales. The PCS and MCS scores have been standardized to have a mean=50, SD=10 in the general healthy US population (see, e.g., Ware, J., M. Kosinski, and J. Dewey, How to Score Version 2 of the SF-36 Health Survey (Standard & Acute Forms). 3rd ed. 2000, Lincoln, R.I.: QualityMetric).
A patient was classified as a responder for the treatment of pain of fibromyalgia if he or she reached Visit Tx15 and satisfied the following criteria: • Greater than or equal to 30% in pain reduction from baseline; • PGIC rated as “much or very much improved,” (i.e., a score of 1 or 2 on the 1-7 scale at endpoint.)
A patient was classified as a responder for the treatment of FMS if he or she satisfied the responder criteria for the treatment of pain of fibromyalgia and the following additional criterion (at visit Tx15): • Improvement on the SF-36 PCS score from baseline by an amount at least equivalent to the minimal clinically important difference, as defined in the Statistical Analysis Plan.
Table 6 summarizes 3-month results for the Baseline Observation Carried Forward (BOCF), Last Observation Carried Forward (LOCF) and study completer (OC) populations. LOCF is an analysis in which observations are carried forward to the last time point for patients who dropped out. The LOCF analysis treats the carried-forward data as observed data at the last time point. BOCF is an analysis that requires that the patient remain active in the trial to be evaluated for response. If a patient withdrew from the trial for any reason, they were classified as a non-responder irregardless of their pain and global scores at the time of withdrawal. […]

[1] = 100 mg, Visits Tx3-Tx15, LOCF, intent to treat

CCN(CC)C(=O)C1(c2ccccc2)CC1CN (racemic) [milnacipran, Z-2-aminomethyl-1-phenyl-N,N-diethylcyclopropanecarboxamide hydrochloride]
Composite Pain: number of responders (3-months, BOCF): 91 | Composite Syndrome: number of responders (3-months, BOCF): 58 | PGIC Component: number of responders (3-months, BOCF): 125 | Pain Component: number of responders (3-months, BOCF): 124 | SF36 PCS Component: number of responders (3-months, BOCF): 108 | Composite Pain: number of responders (3-months, LOCF): 103 | Composite Syndrome: number of responders (3-months, LOCF): 65 | PGIC Component: number of responders (3-months, LOCF): 138 | Pain Component: number of responders (3-months, LOCF): 149 | SF36 PCS Component: number of responders (3-months, LOCF): 129 | physical function in patients with fibromyalgia compared to placebo (in words) (100 mg or 200 mg): surprisingly and effectively improves physical function | Composite Pain: responder rate (100 mg, 3-months, BOCF): (22.81%) | Composite Pain: responder rate difference from placebo (unlabelled line) (100 mg, 3-months, BOCF): 6.35% | Composite Syndrome: responder rate (100 mg, 3-months, BOCF): (14.54%) | Composite Syndrome: responder rate difference from placebo (unlabelled line) (100 mg, 3-months, BOCF): 5.81% | PGIC Component: responder rate (100 mg, 3-months, BOCF): (31.33%) | PGIC Component: responder rate difference from placebo (unlabelled line) (100 mg, 3-months, BOCF): 8.39% | Pain Component: responder rate (100 mg, 3-months, BOCF): (31.08%) | Pain Component: responder rate difference from placebo (unlabelled line) (100 mg, 3-months, BOCF): 5.89% | SF36 PCS Component: responder rate (100 mg, 3-months, BOCF): (27.07%) | SF36 PCS Component: responder rate difference from placebo (unlabelled line) (100 mg, 3-months, BOCF): 5.62% | Composite Pain: responder rate (100 mg, 3-months, LOCF): (25.81%) | Composite Pain: responder rate difference from placebo (unlabelled line) (100 mg, 3-months, LOCF): 7.61% | Composite Syndrome: responder rate (100 mg, 3-months, LOCF): (16.29%) | Composite Syndrome: responder rate difference from placebo (unlabelled line) (100 mg, 3-months, LOCF): 6.56% | PGIC Component: responder rate (100 mg, 3-months, LOCF): (34.59%) | PGIC Component: responder rate difference from placebo (unlabelled line) (100 mg, 3-months, LOCF): 9.65% | Pain Component: responder rate (100 mg, 3-months, LOCF): (37.34%) | Pain Component: responder rate difference from placebo (unlabelled line) (100 mg, 3-months, LOCF): 8.66% | SF36 PCS Component: responder rate (100 mg, 3-months, LOCF): (32.33%) | SF36 PCS Component: responder rate difference from placebo (unlabelled line) (100 mg, 3-months, LOCF): 6.89% | Composite Pain: m/n = # of responders/# of patients included (100 mg, 3-months, OC): 91/236 | Composite Pain: responder rate (100 mg, 3-months, OC): (38.56%) | Composite Pain: responder rate difference from placebo (unlabelled line) (100 mg, 3-months, OC): 13.37% | Composite Syndrome: m/n = # of responders/# of patients included (100 mg, 3-months, OC): 58/236 | Composite Syndrome: responder rate (100 mg, 3-months, OC): (24.58%) | Composite Syndrome: responder rate difference from placebo (unlabelled line) (100 mg, 3-months, OC): 11.22% | PGIC Component: m/n = # of responders/# of patients included (100 mg, 3-months, OC): 125/263 | PGIC Component: responder rate (100 mg, 3-months, OC): (47.53%) | PGIC Component: responder rate difference from placebo (unlabelled line) (100 mg, 3-months, OC): 15.70% | Pain Component: m/n = # of responders/# of patients included (100 mg, 3-months, OC): 124/237 | Pain Component: responder rate (100 mg, 3-months, OC): (52.32%) | Pain Component: responder rate difference from placebo (unlabelled line) (100 mg, 3-months, OC): 13.92% | SF36 PCS Component: m/n = # of responders/# of patients included (100 mg, 3-months, OC): 108/263 | SF36 PCS Component: responder rate (100 mg, 3-months, OC): (41.06%) | SF36 PCS Component: responder rate difference from placebo (unlabelled line) (100 mg, 3-months, OC): 11.40% | time-weighted average (AUC) of SF-36 PCS Scores, Difference from Placebo (100 mg, LOCF): 16.78 | time-weighted average (AUC) of SF-36 PCS Scores, LS Mean (100 mg, LOCF): 425.22 | time-weighted average (AUC) of SF-36 PCS Scores, Difference from Placebo (100 mg, OC): 20.22 | time-weighted average (AUC) of SF-36 PCS Scores, LS Mean (100 mg, OC): 437.91 | Mean Change from Baseline in GHP SF-36 domain score (100 mg, Tx 15, Observed Cohort): 6.0 | Mean Change from Baseline in PAIN SF-36 domain score (100 mg, Tx 15, Observed Cohort): 15.9 | Mean Change from Baseline in PCS Score at Tx 15 (100 mg, Tx 15, Observed Cohort): 5.0 | Mean Change from Baseline in PFI SF-36 domain score (100 mg, Tx 15, Observed Cohort): 6.8 | Mean Change from Baseline in ROLP SF-36 domain score (100 mg, Tx 15, Observed Cohort): 13.7 | time-weighted average (AUC) of SF-36 PCS Scores, Mean [1]: 423.86 | time-weighted average (AUC) of SF-36 PCS Scores, Median [1]: 418.2 | time-weighted average (AUC) of SF-36 PCS Scores, Mean (100 mg, Visits Tx3-Tx15, OC, intent to treat): 435.76
